Results as given in US12593845B2 (priority 2019, dated 2026).

Experiments:
[1] = system: wheat powdery mildew pathogen (Erysiphe graminis f. sp. tritici); test: Wheat powdery mildew seed treatment test; format: in vivo; conditions: Blumeria graminis, 168 h; seed treatment 100 g/100 kg wheat seeds (Chihoku); inoculation after 8 to 10 days; lesion area ratio 7 days after inoculation
Method: (§1) 5 parts by weight of the dihydropyrimidine compound of the present invention, 93.5 parts by weight of N,N-dimethylformamide, and 1.5 parts by weight of polyoxyethylene sorbitan monolaurate (TWEEN® 20) were mixed and dissolved to obtain an emulsion (I) including 5% of an active ingredient.
(§2) The control value was calculated by the following expression. Control value (%)=100−{lesion area ratio in treated group/lesion area ratio in untreated group}×100 [Expression 1]
The emulsion (I) was used to treat seeds such that (weight of dihydropyrimidine compound)/(weight of seeds) reached 100 g/100 kg based on the wheat seeds (variety: “Chihoku”). These seeds were disseminated in pots, and after 8 to 10 days, conidiospores of a wheat powdery mildew pathogen (Erysiphe graminis f. sp. tritici) were sprinkled thereon for inoculation (treated group). As a control, wheat seedlings that were not treated with the drug were inoculated in the same manner as described above (untreated group). The seedlings were left to stand in a greenhouse at 20° C.
(§3) On the 7 days after the inoculation, the leaves of the wheat seedlings were visually observed to determine the lesion area ratio, and the control value was calculated.

[2] = system: wheat powdery mildew pathogen (Erysiphe graminis f. sp. tritici); test: Wheat powdery mildew soil irrigation treatment test; format: in vivo; conditions: Blumeria graminis, 168 h; soil irrigation with 10 ml of 100 ppm drug solution per pot, wheat (Chihoku); inoculation after 8 to 10 days; lesion area ratio 7 days after inoculation
Method: as §1, §2
Pots (5.5 cm×5.5 cm) in which wheat seeds (variety: “Chihoku”) were disseminated were irrigated with 10 ml of a drug solution prepared by adding water to the emulsion (I) so as to have a concentration of the dihydropyrimidine compound of 100 ppm. After 8 to 10 days, conidiospores of a wheat powdery mildew pathogen (Erysiphe graminis f. sp. tritici) were sprinkled thereon for inoculation (treated group). As a control, wheat seedlings that were not treated with the drug were inoculated in the same manner as described above (untreated group). The seedlings were left to stand in a greenhouse at 20° C.
as §3

Aspergillus niger = test: Antimicrobial test against Aspergillus niger; format: cell-based; conditions: 96 h, Vogel medium, 25° C., 4 days in the dark, turbidity at 405 nm, read-out: growth inhibition rate
Method: Spores of Aspergillus niger were added to and dispersed in a Vogel medium, and a dihydropyrimidine compound dissolved in dimethyl sulfoxide was added and mixed thereto at 25 ppm. The resulting solution was dispensed onto a 96-well microplate and cultivated in the dark at 25° C. for 4 days.
After the cultivation, the turbidity at a wavelength of 405 nm was measured by a microplate reader and compared with that in the untreated case to determine the growth inhibition of Aspergillus niger (%) was determined.

Structure (SMILES) | pest or weed control at 100 g/100 kg seed [1] [%] | pest or weed control at 100 ppm [2] [%] | inhibition at 25 ppm (Aspergillus niger) [%]
COc1ccc(F)cc1C(O)Cn1cc(/C(C)=N/OC(C)C)c(=O)n(C[C@@H](NC(=O)C(C)=O)C(C)C)c1=O (stereo partly drawn) [C-73] | ≥ 75 | ≥ 75 | ≥ 50
COCC(=O)N[C@H](Cn1c(=O)c(/C(C)=N/OC(C)C)cn(CC(O)c2cc(F)ccc2OC)c1=O)C(C)C (stereo partly drawn) [C-83] | ≥ 75 | ≥ 75 | ≥ 50
CC[C@@H](Cn1c(=O)c(/C(C)=N/OC(C)C)cn(CC(O)c2ccccc2OC)c1=O)NC(=O)C(C)C (stereo partly drawn) [C-93] | ≥ 75 | ≥ 75 | ≥ 50
CCCC(=O)N[C@H](Cn1c(=O)c(/C(C)=N/OC(C)C)cn(CC(O)c2ccccc2OC)c1=O)C(C)C (stereo partly drawn) [C-95] | ≥ 75 | ≥ 75 | ≥ 50
COc1ccccc1C(O)Cn1cc(/C(C)=N/OC(C)C)c(=O)n(C[C@@H](NC(=O)C2CC2)C(C)C)c1=O (stereo partly drawn) [C-99] | ≥ 75 | ≥ 75 | ≥ 50
C=C(C)C(=O)N[C@H](Cn1c(=O)c(/C(C)=N/OC(C)C)cn(CC(O)c2cc(F)ccc2OC)c1=O)C(C)C (stereo partly drawn) [C-101] | ≥ 75 | ≥ 75 | ≥ 50
CCO/N=C(\C)c1cn(CC(O)c2cc(F)ccc2OC)c(=O)n(C[C@@H](NC(=O)C(C)C)C(C)C)c1=O (stereo partly drawn) [C-107] | ≥ 75 | ≥ 75 | ≥ 50
CCC(=O)N[C@H](Cn1c(=O)c(/C(C)=N/OC(C)C)cn(CC(O)c2cc(F)ccc2OC)c1=O)C(C)C (stereo partly drawn) [C-117] | ≥ 75 | ≥ 75 | ≥ 50
COc1ccc(F)cc1C(O)Cn1cc(/C(C)=N/OC(C)C)c(=O)n(C[C@@H](NC(=O)C(C)C)C(C)(C)C)c1=O (stereo partly drawn) [C-148] | ≥ 75 | ≥ 75 | ≥ 50
CC[C@@H](Cn1c(=O)c(/C(C)=N/OC(C)C)cn(CC(O)c2cc(F)ccc2OC)c1=O)NC(=O)C(C)C (stereo partly drawn) [C-154] | ≥ 75 | ≥ 75 | ≥ 50
C=Cc1ccccc1C(O)Cn1cc(/C(C)=N/OC(C)C)c(=O)n(C[C@H](C)NC(=O)C(C)C)c1=O (stereo partly drawn) [C-160] | ≥ 75 | ≥ 75 | ≥ 50
COc1ccccc1C(O)Cn1cc(/C(C)=N/OC(C)C)c(=O)n(C[C@@H](NC(=O)C(C)C)C(C)C)c1=O (stereo partly drawn) [C-170] | ≥ 75 | ≥ 75 | ≥ 50
COc1ccc(F)cc1C(O)Cn1cc(/C(C)=N/OC(C)C)c(=O)n(C[C@H](C)NC(=O)N(C)C)c1=O (stereo partly drawn) [C-179] | ≥ 75 | ≥ 75 | ≥ 50
CCc1ccccc1C(O)Cn1cc(/C(C)=N/OC(C)C)c(=O)n(C[C@H](C)NC(=O)C(C)C)c1=O (stereo partly drawn) [C-197] | ≥ 75 | ≥ 75 | ≥ 50
COc1ccc(F)cc1C(O)Cn1cc(/C(C)=N/OC(C)C)c(=O)n(C[C@H](CC(C)C)NC(=O)C(C)C)c1=O (stereo partly drawn) [C-199] | ≥ 75 | ≥ 75 | ≥ 50
COc1ccc(F)cc1C(O)Cn1cc(/C(C)=N/OC(C)C)c(=O)n(C[C@@H](NC(C)=O)C(C)C)c1=O (stereo partly drawn) [C-207] | ≥ 75 | ≥ 75 | ≥ 50
COc1ccc(F)cc1C(O)Cn1cc(/C(C)=N/OC(C)C)c(=O)n(C[C@@H](NC(=O)C(C)C)C(C)C)c1=O (stereo partly drawn) [C-210] | ≥ 75 | ≥ 75 | ≥ 50
